From PMC8842224 (Journal of Medicinal Chemistry, 2022)
In brackets after ≈: the same amount, converted by molar mass. Like-named read-outs stand apart in the source and are kept apart here. Marks after values point to notes of the source that are not given here.

How the values were obtained:
[1] = system: A3; details: printed in Figure 2; cited from earlier work
[2] = system: A2A; details: cited from earlier work
[3] = target: A1; details: cited from earlier work
[4] = target: T1, human A1AR (Homo sapiens, UniProt P30542); details: for Exp absolute binding affinity (ΔGbind): experimental, A1AR; for Ki: read-out: hA1 Ki, displacement of specific [3H]DPCPX binding, human CHO cells, ± SEM, n = 3
T1 sequence (P30542 1-326): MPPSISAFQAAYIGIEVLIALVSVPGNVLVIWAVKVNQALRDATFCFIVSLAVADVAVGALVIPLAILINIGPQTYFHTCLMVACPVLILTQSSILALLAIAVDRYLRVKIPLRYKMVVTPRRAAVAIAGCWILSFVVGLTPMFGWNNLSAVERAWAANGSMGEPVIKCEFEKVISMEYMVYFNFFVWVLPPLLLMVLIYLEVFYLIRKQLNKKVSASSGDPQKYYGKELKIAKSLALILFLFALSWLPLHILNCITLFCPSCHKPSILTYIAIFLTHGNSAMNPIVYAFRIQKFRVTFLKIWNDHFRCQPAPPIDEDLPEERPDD

[5] = target: P-glycoprotein (P-gp) (Homo sapiens, UniProt P08183); details: MDCK-MDR1 cells, NA = not active
Sequence of P-glycoprotein (P-gp) (P08183 whole entry): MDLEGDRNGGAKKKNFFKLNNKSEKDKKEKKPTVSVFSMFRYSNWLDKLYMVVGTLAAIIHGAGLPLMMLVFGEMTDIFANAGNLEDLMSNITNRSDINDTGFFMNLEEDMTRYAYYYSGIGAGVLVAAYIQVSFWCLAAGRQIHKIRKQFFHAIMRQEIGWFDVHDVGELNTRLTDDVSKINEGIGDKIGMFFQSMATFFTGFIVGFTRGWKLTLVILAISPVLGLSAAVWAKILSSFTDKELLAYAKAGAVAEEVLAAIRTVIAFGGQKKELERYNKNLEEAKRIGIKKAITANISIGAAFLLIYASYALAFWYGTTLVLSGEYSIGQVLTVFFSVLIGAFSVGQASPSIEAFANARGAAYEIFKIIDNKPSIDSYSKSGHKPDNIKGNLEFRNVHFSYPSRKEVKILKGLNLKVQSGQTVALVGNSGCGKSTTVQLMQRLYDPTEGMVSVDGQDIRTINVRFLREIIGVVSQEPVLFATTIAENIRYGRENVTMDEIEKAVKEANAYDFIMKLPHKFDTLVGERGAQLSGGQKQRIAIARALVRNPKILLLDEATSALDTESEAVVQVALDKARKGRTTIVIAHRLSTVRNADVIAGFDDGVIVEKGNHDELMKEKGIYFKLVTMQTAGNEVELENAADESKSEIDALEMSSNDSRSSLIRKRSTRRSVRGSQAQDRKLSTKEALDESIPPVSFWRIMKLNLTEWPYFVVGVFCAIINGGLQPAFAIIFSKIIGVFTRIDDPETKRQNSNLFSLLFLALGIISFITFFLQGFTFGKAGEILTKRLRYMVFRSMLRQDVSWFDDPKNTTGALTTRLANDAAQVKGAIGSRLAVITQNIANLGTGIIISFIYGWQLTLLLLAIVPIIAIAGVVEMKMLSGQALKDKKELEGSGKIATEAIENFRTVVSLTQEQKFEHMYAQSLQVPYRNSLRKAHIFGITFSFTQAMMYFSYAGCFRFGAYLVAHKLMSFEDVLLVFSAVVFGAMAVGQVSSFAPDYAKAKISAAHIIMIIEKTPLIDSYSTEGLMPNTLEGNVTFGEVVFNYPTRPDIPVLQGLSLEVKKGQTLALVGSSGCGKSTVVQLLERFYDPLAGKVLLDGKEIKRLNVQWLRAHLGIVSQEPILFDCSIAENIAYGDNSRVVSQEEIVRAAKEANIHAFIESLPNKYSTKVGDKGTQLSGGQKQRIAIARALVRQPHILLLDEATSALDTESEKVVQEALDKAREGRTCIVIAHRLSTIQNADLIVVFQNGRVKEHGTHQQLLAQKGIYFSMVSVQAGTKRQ

[6] = target: T1, human A1AR; experiment: biochemical
[7] = Aqueous solubility by nephelometry in PBS; details: pH 7.4
[8] = target: T2, hA2B (Homo sapiens, UniProt P29275); experiment: cAMP functional assay, inhibition of NECA effect; assay type: cell-based; details: read-out: hA2B % Inhib. NECA (1 μM)
T2 sequence (P29275 1-332): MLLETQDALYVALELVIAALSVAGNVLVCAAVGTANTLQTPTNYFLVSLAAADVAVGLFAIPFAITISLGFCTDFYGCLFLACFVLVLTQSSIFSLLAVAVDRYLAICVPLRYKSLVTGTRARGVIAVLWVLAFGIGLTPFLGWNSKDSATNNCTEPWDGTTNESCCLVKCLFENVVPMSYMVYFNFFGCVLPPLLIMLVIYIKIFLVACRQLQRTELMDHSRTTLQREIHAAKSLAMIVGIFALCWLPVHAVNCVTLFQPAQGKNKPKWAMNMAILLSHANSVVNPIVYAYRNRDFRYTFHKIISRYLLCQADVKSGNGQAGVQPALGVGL

[9] = target: hA2A (Homo sapiens, UniProt P29274); experiment: cAMP functional assay, inhibition of NECA effect; assay type: cell-based; details: read-out: hA2A % Inhib. NECA (1 μM)
Sequence of hA2A (P29274 whole entry): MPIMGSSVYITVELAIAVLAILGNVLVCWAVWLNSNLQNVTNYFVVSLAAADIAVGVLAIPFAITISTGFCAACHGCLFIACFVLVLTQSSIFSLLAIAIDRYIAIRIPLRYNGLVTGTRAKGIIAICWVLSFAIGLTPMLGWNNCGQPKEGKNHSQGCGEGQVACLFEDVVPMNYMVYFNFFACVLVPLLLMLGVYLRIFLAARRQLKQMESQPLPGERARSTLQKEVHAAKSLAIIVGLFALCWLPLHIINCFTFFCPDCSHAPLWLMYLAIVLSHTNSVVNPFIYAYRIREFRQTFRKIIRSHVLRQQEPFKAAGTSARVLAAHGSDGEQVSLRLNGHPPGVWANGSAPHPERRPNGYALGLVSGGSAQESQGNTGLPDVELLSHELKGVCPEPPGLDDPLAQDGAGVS

[10] = in vitro; details: human, microsomes, pH 7.4
[11] = target: T3, hA3 (Homo sapiens, UniProt P0DMS8); experiment: cAMP functional assay, inhibition of NECA effect; assay type: cell-based; details: read-out: hA3 % Inhib. NECA (1 μM)
T3 sequence (P0DMS8 1-318): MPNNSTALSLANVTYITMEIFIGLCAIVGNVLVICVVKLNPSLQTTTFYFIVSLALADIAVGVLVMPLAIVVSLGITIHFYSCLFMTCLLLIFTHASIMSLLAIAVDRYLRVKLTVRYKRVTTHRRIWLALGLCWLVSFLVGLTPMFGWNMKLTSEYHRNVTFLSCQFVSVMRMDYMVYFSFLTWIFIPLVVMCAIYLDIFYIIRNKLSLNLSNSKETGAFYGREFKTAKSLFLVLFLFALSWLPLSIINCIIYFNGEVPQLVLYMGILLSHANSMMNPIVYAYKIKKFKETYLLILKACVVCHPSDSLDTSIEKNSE

[12] = target: human A2AAR (Homo sapiens, UniProt P29274); details: read-out: hA2A Ki; displacement of specific [3H]ZM241385 binding, human HeLa cells, ± SEM, n = 3
Sequence of human A2AAR (P29274 whole entry): as the sequence (P29274 whole entry) above

[13] = target: T4, human A2BAR (Homo sapiens, UniProt P29275); details: read-out: hA2B Ki; displacement of specific [3H]DPCPX binding, human HEK-293 cells, ± SEM, n = 3
T4 sequence (P29275 1-332): T2 sequence (P29275 1-332)

[14] = target: T4, human A2BAR; experiment: biochemical; details: read-out: hA2B percentage displacement of specific binding at 1 μM
[15] = human microsomes
[16] = target: T5, hA1ARs (Homo sapiens, UniProt P30542); details: NECA 100 nM, forskolin 3 μM
T5 sequence (P30542 1-326): T1 sequence (P30542 1-326)

**Q.** With `Nc1cc(-c2ccc3c(c2)OCO3)nc(-c2ccccc2)n1` [15b] as the molecule, how does the “A3 (1μM)” value [1] read?
**A.** 15%

**Q.** Which “A3 (1μM)” value [1] does the source give for `N#Cc1c(NC(=O)C2CCCC2)nc(-c2ccccc2)nc1-c1ccc2c(c1)OCO2` [15c] here?
**A.** 27%

**Q.** And the “A2A (1μM)” value [2]?
**A.** 14%

**Q.** For `Nc1nc(-c2ccccc2)cc(-c2ccccc2)n1` [17a], which Ki [3] is on record?
**A.** 17.7 nM

**Q.** For `CNc1nc(-c2ccccc2)c(C#N)c(-c2ccc(F)cc2F)n1` [19af], which “Exp absolute binding affinity (ΔGbind)” value [4] is on record?
**A.** -10.42 kcal/mol

**Q.** And the Ki [4]?
**A.** 22.6 ± 7 nM

**Q.** And the “Calcein-AM transport inhibition at 100 μM” value [5]?
**A.** 44% ^a

**Q.** What about the Ki [6] of the same molecule?
**A.** < 50 nM

**Q.** For `CNc1nc(-c2ccccc2)c(C#N)c(-c2cc(Cl)cc(Cl)c2)n1` [19aj], which “Exp absolute binding affinity (ΔGbind)” value [4] is on record?
**A.** -10.32 kcal/mol

**Q.** And the Ki [4]?
**A.** 27 ± 3.6 nM

**Q.** What about the Ki [6] of the same molecule?
**A.** < 50 nM

**Q.** With `CNc1nc(-c2ccccc2)c(C#N)c(-c2ccc3c(c2)OCO3)n1` [19ao] as the molecule, how does the “Calcein-AM transport inhibition at 100 μM” value [5] read?
**A.** 59% ^a

**Q.** What about the solubility at 2 h [7] of the same molecule?
**A.** 5.4 µM (≈ 1.78 µg/mL)

**Q.** And the inhibition at 1 µM [8]?
**A.** 1%

**Q.** And the inhibition at 1 µM [9]?
**A.** 18%

**Q.** What about the half-life [10] of the same molecule?
**A.** 15.2 min

**Q.** And the inhibition at 1 µM [11]?
**A.** 5%

**Q.** With `N#Cc1c(-c2ccccc2)nc(Nc2ccccc2)nc1-c1ccc2c(c1)OCO2` [19aq] as the molecule, how does the Ki [4] read?
**A.** 11.4 ± 3.7 nM

**Q.** What about the Ki [12] of the same molecule?
**A.** 28 ± 9.6 nM

**Q.** What about the Ki [13] of the same molecule?
**A.** 188 ± 23 nM

**Q.** Which results are given for `N#Cc1c(-c2ccccc2)nc(Nc2ccccc2)nc1-c1ccco1` [19au]?
**A.** Ki [4]: 33.7 ± 7.3 nM; Ki [12]: 2.15 ± 0.11 nM; Ki [13]: 14.7 ± 4.9 nM

**Q.** With `CNc1nc(-c2ccccc2)c(C#N)c(-c2ccsc2)n1` [19az] as the molecule, how does the A1AR selectivity [4] read?
**A.** > 1000 fold

**Q.** And the “Exp relative binding affinity (ΔΔGbind)” value ([4]; Lig 2 relative to Lig 1 = 19a)?
**A.** 0.91 kcal/mol

**Q.** And the “Exp relative binding affinity (ΔΔGbind)” value ([4]; Lig 2 relative to Lig 1 = 19bb)?
**A.** -0.17 kcal/mol

**Q.** What about the “Exp absolute binding affinity (ΔGbind)” value [4] of the same molecule?
**A.** -10.05 kcal/mol

**Q.** And the Ki [4]?
**A.** 42.8 ± 3.7 nM

**Q.** What about the Ki [6] of the same molecule?
**A.** < 50 nM

**Q.** With `CNc1nc(-c2ccccc2)c(C#N)c(-c2cccnc2)n1` [19bd] as the molecule, how does the A1AR selectivity [4] read?
**A.** > 1000 fold

**Q.** What about the “Exp relative binding affinity (ΔΔGbind)” value ([4]; Lig 2 relative to Lig 1 = 19a) of the same molecule?
**A.** 0.44 kcal/mol

**Q.** And the “Exp relative binding affinity (ΔΔGbind)” value ([4]; Lig 2 relative to Lig 1 = 19bb)?
**A.** -0.64 kcal/mol

**Q.** And the “Exp absolute binding affinity (ΔGbind)” value [4]?
**A.** -10.52 kcal/mol

**Q.** And the Ki [4]?
**A.** 19.3 ± 7.1 nM

**Q.** What about the Ki [6] of the same molecule?
**A.** < 50 nM

**Q.** Which inhibition at 1 µM [14] does the source give for `CCNc1nc(-c2ccccc2)c(C#N)c(-c2cccnc2)n1` [19be] here?
**A.** 1%

**Q.** And the Ki [4]?
**A.** 11.8 ± 3.5 nM

**Q.** What about the Ki [12] of the same molecule?
**A.** 335 ± 18 nM

**Q.** Which results are given for `N#Cc1c(-c2ccccc2)nc(Nc2ccccc2)nc1-c1ccccc1F` [19e]?
**A.** Ki [4]: 6.25 ± 1.02 nM; Ki [12]: 52.5 ± 6.2 nM; Ki [13]: 107 ± 10 nM

**Q.** What does the source list for `CNc1nc(-c2ccccc2)c(C#N)c(-c2cccc(Cl)c2)n1` [19l]?
**A.** solubility at 2 h [7]: 75.4 µM (≈ 24.2 µg/mL); inhibition at 1 µM [8]: 11%; inhibition at 1 µM [9]: 16%; half-life [10]: 6.24 min; inhibition at 1 µM [11]: 9%

**Q.** What does the source list for `CNc1nc(-c2ccccc2)c(C#N)c(-c2cccc(C#N)c2)n1` [19s]?
**A.** Exp relative binding affinity (ΔΔGbind) ([4]; Lig 2 relative to Lig 1 = 19a): -0.66 kcal/mol; Exp absolute binding affinity (ΔGbind) [4]: -11.62 kcal/mol; Ki [4]: 2.99 ± 0.71 nM; Ki [12]: 78.5 ± 6.7 nM; Ki [13]: 34.6 ± 5.7 nM

**Q.** Which results are given for `CCNc1nc(-c2ccccc2)c(C#N)c(-c2cccc(C#N)c2)n1` [19t]?
**A.** Ki [4]: 2.46 ± 0.18 nM; Ki [12]: 155 ± 21 nM; Ki [13]: 14.2 ± 3.8 nM

**Q.** Which results are given for `CNc1nc(-c2ccccc2)c(C#N)c(-c2ccc(F)cc2)n1` [19v]?
**A.** solubility at 2 h [7]: 18 µM (≈ 5.48 µg/mL); inhibition at 1 µM [9]: 25%; half-life [10]: 18.6 min; inhibition at 1 µM [11]: 5%

**Q.** Which A1AR selectivity [4] does the source give for `CNc1nc(-c2ccccc2)c(C#N)c(-c2ccc(O)cc2)n1` [19z] here?
**A.** > 1000 fold

**Q.** And the “Exp relative binding affinity (ΔΔGbind)” value ([4]; Lig 2 relative to Lig 1 = 19a)?
**A.** 0.94 kcal/mol

**Q.** And the “Exp relative binding affinity (ΔΔGbind)” value ([4]; Lig 2 relative to Lig 1 = 19ad)?
**A.** 0.28 kcal/mol

**Q.** And the “Exp absolute binding affinity (ΔGbind)” value [4]?
**A.** -10.02 kcal/mol

**Q.** What about the Ki [4] of the same molecule?
**A.** 44.6 ± 3.2 nM

**Q.** And the Ki [6]?
**A.** < 50 nM

**Q.** Which “% Remanent (sampling time 60 min)” value [15] does the source give for `C[C@]12CC[C@H]3[C@@H](CCC4=CC(=O)CC[C@@]43C)[C@@H]1CC[C@@H]2O` [Testosterone, reference compound] here?
**A.** 8.77%

**Q.** What about the half-life [10] of the same molecule?
**A.** 17.1 min

**Q.** And the microsomal CLint [10]?
**A.** 27.8 µL/min/mg

**Q.** With `CCCn1c(=O)c2[nH]c(-c3ccc(OCC(=O)NCCN)cc3)nc2n(CCC)c1=O` [XAC] as the molecule, how does the “functional behaviour at hA1ARs (cAMP)” value [16] read?
**A.** reverse the inhibitory effect of NECA on FSK-induced cAMP accumulation
